Our source for the IC50 values is ChEMBL document CHEMBL1147475, “2-Alkyl-4-arylimidazoles: structurally novel sodium channel modulators” (Bioorg Med Chem Lett, 2004).

The target of assay [1] is Sodium channel alpha subunits; brain (Types I, II, III) (Rattus norvegicus, UniProt P04775+P04774+P08104). Nature of the assay: Concentration required to inhibit [3H]BTX binding to Sodium channel of rat brain.
The next assay relates to SH-SY5Y. Nature of the assay: Cytoprotection of SH-SY5Y cells against veratridine-induced cytotoxicity. The settings on record: Homo sapiens. It counts as functional, cell-based.

Usually IC50 stands for the point on the concentration scale where inhibition reaches its midpoint. The low end stands for greater potency, the high end for weaker potency. In assay [1], `Fc1ccc(-c2c[nH]c(CC3CCCCC3)n2)cc1` had an IC50 of 146 nM. In other words, the sub-micromolar range.

As for `c1ccc(-c2ccc(-c3c[nH]c(CCCC4CCCCC4)n3)cc2)cc1`, the half-inhibitory concentration (IC50) was determined as 19 nM in assay [1] and 1000 nM in the assay with SH-SY5Y. `CCCC(CCC)c1nc(-c2ccc(C(C)(C)C)cc2)c[nH]1`: the IC50 in assay [1] was 30 nM; in the assay on SH-SY5Y, 430 nM.

Take `NC(=O)N1c2ccccc2C=Cc2ccccc21` [CARBAMAZEPINE]: the half-inhibitory concentration (IC50) in assay [1] is 167000 nM. In assay [1], `CCN(CC)CC(=O)Nc1c(C)cccc1C` [LIDOCAINE] had a half-maximal inhibitory concentration (IC50) of 56000 nM. With `CCCC(CCC)c1nc(-c2ccc(-c3ccccc3)cc2)c[nH]1`, the IC50 in assay [1] is recorded as 100 nM. This IC50 lies about 560-fold lower than the previous one. Molecule `Cc1nc(-c2ccc(-c3ccccc3)cc2)c[nH]1` had an IC50 in assay [1] of 1460 nM. As to `CCCC(CCC)c1nc(-c2ccc(F)cc2)c[nH]1`, the IC50 in assay [1] is given as 518 nM.

For the molecule `c1ccc(-c2c[nH]c([C@H]3Cc4c([nH]c5ccccc45)[C@@H](c4ccccc4)N3)n2)cc1`, the 50% inhibitory concentration (IC50) in assay [1] is given as 1460 nM. For the molecule `CCCCCC(CCCCC)c1nc(-c2ccc(F)cc2)c[nH]1`, the values for the concentration for half-maximal inhibition (IC50) (in assay [1]; in the assay with SH-SY5Y) were 25 nM and 770 nM, respectively. In the case of `CCCCCCc1nc(-c2ccc(CC(C)C)cc2)c[nH]1`, the results for the concentration for half-maximal inhibition (IC50) (in assay [1]; in the assay on SH-SY5Y) were 28 nM and 380 nM, respectively. In assay [1], `CCCCCC(CCCCC)c1nc(-c2ccccc2)c[nH]1` registered an IC50 of 86 nM. With `CCCCCC(CCCCC)c1nc(-c2ccc(-c3ccccc3)cc2)c[nH]1`, the IC50 was 8 nM in assay [1] and 810 nM with SH-SY5Y. Taken in the same sequence, the figures for `CCCCCCc1nc(-c2ccc(-c3ccccc3)cc2)c[nH]1` were 16 nM and 450 nM. On to `CCCC(CCC)c1nc(-c2ccc(-c3ccc(Br)cc3)cc2)c[nH]1`, for which the IC50 in assay [1] is on record as 322 nM. For the molecule `c1ccc(-c2ccc(-c3c[nH]c(CCC4CCCCC4)n3)cc2)cc1`, the IC50 in assay [1] is 26 nM; in the assay with SH-SY5Y, 760 nM. Turning to `c1ccc(-c2ccc(-c3c[nH]c(CC4CCCCC4)n3)cc2)cc1`, the IC50 in assay [1] was determined as 70 nM. Still for that read-out and setting: then `Nc1nnc(-c2cccc(Cl)c2Cl)c(N)n1` [LAMOTRIGINE], with 31000 nM.
